We go through two compounds from patent publication US10168342B2, “Lipid probes and uses thereof” (THE SCRIPPS RESEARCH INSTITUTE, priority 2015, dated 2019).

Experiment in all cases: In situ competitive SILAC profiling with A-DA probe in (PMA-stimulated) A549 cells
Common to all, as to conditions: A549 cells, A-DA probe

Assay [1] deals with T1, A-DA lipid probe targets in A549 cells (Homo sapiens, UniProt P30519).
T1 sequence (P30519 1-316): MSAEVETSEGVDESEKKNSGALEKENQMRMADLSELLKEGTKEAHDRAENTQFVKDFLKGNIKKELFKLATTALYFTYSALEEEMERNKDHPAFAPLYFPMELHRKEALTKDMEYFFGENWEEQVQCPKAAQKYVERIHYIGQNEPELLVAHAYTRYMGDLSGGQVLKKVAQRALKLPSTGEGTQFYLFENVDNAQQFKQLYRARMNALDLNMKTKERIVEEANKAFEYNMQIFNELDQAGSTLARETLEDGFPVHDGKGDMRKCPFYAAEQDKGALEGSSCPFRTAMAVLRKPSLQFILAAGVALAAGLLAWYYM

Assay [2] addresses A-DA lipid probe targets in A549 cells (Homo sapiens, UniProt P21796).
For assay [3], the target named is T2, A-DA lipid probe targets in A549 cells (Homo sapiens, UniProt Q99536).
T2 sequence (Q99536 1-393): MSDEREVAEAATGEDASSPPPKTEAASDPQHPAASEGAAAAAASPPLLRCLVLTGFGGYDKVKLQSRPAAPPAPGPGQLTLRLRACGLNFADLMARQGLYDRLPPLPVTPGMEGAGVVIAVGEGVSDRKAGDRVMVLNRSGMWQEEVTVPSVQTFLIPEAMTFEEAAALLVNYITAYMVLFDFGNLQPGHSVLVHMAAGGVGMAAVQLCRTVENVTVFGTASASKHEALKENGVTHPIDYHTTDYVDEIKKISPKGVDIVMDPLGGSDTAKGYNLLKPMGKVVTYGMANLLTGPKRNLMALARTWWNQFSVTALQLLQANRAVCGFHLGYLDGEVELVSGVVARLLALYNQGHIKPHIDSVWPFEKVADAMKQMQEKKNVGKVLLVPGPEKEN

Assay [4] has as its target T3, A-DA lipid probe targets in A549 cells (Homo sapiens, UniProt Q8NF37).
T3 sequence (Q8NF37 1-534): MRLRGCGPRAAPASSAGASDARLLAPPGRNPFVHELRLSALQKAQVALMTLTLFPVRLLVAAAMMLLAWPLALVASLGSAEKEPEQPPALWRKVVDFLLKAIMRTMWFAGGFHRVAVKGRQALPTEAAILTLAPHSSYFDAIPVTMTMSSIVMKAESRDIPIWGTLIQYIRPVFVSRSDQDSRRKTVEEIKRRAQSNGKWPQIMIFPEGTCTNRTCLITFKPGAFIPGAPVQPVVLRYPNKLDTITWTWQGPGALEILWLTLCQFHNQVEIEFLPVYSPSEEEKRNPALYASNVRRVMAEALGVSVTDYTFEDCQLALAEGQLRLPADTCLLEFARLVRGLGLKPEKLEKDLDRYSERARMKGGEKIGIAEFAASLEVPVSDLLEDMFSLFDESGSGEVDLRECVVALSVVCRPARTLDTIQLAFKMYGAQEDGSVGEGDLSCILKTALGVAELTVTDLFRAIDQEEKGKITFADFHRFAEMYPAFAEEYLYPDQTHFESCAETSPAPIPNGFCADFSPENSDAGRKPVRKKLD

Assay [5] deals with T4, A-DA lipid probe targets in A549 cells (Homo sapiens, UniProt Q96G23).
T4 sequence (Q96G23 1-380): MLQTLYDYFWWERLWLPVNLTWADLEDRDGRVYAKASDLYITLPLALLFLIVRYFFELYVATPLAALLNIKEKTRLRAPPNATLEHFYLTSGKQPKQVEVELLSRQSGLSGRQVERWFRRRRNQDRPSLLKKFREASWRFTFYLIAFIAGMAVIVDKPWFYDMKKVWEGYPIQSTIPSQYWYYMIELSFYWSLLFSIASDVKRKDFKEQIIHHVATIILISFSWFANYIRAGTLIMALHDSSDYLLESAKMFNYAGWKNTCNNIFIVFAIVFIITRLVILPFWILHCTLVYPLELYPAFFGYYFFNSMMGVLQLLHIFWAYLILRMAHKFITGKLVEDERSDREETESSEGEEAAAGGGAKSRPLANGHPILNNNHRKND

Assay [6] addresses T5, A-DA lipid probe targets in A549 cells (Homo sapiens, UniProt Q9BTX1).
T5 sequence (Q9BTX1 1-674): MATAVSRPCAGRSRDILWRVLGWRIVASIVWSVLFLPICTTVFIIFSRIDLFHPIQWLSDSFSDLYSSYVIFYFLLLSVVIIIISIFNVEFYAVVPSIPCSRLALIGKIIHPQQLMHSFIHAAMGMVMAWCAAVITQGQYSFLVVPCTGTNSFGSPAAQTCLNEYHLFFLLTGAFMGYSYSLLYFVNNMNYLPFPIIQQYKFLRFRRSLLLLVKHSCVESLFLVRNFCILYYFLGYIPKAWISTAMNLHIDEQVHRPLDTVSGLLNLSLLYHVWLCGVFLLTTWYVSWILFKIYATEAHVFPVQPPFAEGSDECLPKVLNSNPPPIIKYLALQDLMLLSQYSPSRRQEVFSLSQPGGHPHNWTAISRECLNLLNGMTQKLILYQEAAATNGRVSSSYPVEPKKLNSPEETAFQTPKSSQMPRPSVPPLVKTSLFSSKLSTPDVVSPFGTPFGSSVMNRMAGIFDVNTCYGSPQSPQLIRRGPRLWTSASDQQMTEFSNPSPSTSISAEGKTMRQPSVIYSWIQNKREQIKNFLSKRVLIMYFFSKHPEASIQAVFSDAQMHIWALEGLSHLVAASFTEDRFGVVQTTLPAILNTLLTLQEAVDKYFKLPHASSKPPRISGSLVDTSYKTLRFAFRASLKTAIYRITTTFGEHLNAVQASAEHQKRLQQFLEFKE

Chain of A-DA lipid probe targets in A549 cells (Homo sapiens, UniProt P21796) (P21796 whole entry): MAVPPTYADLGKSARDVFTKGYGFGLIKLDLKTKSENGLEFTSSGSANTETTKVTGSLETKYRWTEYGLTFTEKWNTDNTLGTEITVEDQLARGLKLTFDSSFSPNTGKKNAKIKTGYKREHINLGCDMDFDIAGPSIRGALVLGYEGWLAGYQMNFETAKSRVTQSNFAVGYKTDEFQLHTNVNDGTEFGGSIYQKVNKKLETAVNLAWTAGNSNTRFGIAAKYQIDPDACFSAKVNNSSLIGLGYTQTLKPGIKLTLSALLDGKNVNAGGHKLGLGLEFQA

As to `C=CCN(C)CCCCCCOc1ccc(C(=O)c2ccc(Br)cc2)c(F)c1` [Ro488071], the results for the “SILAC ratio, HMOX2 (P30519)” value in assay [1] (competitor 5 μM) and in assay [1] (competitor 50 μM) were 1.3 and 3.4, respectively. Further, the figures for the “SILAC ratio, VDAC1 (P21796)” value in assay [2] (competitor 5 μM) and in assay [2] (competitor 50 μM) were 1.4 and 3.3, respectively. Also, the “SILAC ratio, VAT1 (Q99536)” value in assay [3] (competitor 5 μM) is 1.4; in assay [3] (competitor 50 μM) it was 2.5. The “SILAC ratio, LPCAT1 (Q8NF37)” value is recorded as 1.6 in assay [4] (competitor 5 μM) and 3.1 in assay [4] (competitor 50 μM). The results for the “SILAC ratio, CERS2 (Q924Z4)” value in assay [5] (competitor 5 μM) and in assay [5] (competitor 50 μM) were 1.5 and 2.5, respectively. Further, the “SILAC ratio, TMEM48 (Q8VCB1)” value was determined as 1.5 in assay [6] (competitor 5 μM) and 2.8 in assay [6] (competitor 50 μM).
Consider `O=C(/C=C/c1cccnc1)NCCCCC1CCN(C(=O)c2ccccc2)CC1` [FK-866, reference compound], for which the “SILAC ratio, HMOX2 (P30519)” value in assay [1] (competitor 25 μM) turned out to be 1.3. The “SILAC ratio, VDAC1 (P21796)” value in assay [2] (competitor 25 μM) is given as 1.3. For the same compound, the “SILAC ratio, VAT1 (Q99536)” value in assay [3] (competitor 25 μM) is reported as 4.0. The “SILAC ratio, LPCAT1 (Q8NF37)” value in assay [4] (competitor 25 μM) was 1.4. Moreover, the “SILAC ratio, CERS2 (Q924Z4)” value in assay [5] (competitor 25 μM) turned out to be 1.4. Moreover, the “SILAC ratio, TMEM48 (Q8VCB1)” value in assay [6] (competitor 25 μM) came to 1.2.
